# Experimental data: patent publication US9539336B2, “Sialic acid derivatives” (priority 2012, dated 2017)
# Key:
# CD22 (Siglec-2) [1] = target: T1, CD22 (Siglec-2) (Homo sapiens, UniProt P20273); details: Table II; affinity to CD22, BPC NeuAc = 1; cited from earlier work
# T1 sequence (P20273 20-847): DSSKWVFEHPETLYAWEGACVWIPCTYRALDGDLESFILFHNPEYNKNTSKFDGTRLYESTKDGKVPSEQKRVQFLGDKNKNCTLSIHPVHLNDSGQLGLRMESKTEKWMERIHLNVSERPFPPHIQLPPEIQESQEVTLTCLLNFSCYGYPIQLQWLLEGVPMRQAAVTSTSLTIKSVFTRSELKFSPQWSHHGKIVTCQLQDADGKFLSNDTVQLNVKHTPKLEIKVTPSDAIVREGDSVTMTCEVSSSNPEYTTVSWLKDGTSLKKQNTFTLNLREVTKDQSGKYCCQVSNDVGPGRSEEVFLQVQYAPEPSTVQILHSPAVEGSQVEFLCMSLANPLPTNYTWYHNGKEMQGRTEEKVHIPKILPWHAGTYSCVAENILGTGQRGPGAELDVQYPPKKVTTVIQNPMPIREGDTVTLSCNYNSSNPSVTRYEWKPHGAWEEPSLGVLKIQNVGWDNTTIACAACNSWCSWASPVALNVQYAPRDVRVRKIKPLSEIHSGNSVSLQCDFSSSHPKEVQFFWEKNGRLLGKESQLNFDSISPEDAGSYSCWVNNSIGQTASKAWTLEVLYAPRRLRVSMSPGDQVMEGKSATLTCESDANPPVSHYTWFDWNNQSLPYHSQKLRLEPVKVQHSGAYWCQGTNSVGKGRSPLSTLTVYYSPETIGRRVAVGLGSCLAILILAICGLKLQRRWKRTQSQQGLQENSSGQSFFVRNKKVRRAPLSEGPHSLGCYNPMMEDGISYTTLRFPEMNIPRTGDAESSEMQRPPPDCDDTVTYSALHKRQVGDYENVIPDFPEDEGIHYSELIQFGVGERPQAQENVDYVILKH
# CD22 (Siglec-2) [2] = target: T1, CD22 (Siglec-2); assay: New assay: displacement of biotin conjugate 35 from sialidase-treated Daudi cells, measured by FACS; format: binding; set-up: endogenous in cells; host or cells: Daudi (human B cell lymphoma line); details: Table II, IC50 values converted into rIP, BPC NeuAc = 1, 2 μmolar substance 35
# Procedure: In order to be able to determine the affinity of the novel derivatives to CD22, a new assay was developed. For this assay, compound 35 (conjugate of a sialic acid derivative of the formula (I) and biotin) was prepared.
# To determine the affinity of the compound of the formula (I), approximately 2×10^8 cells of the human B cell lymphoma line “Daudi” were incubated with sialidase (A. ureafaciens) for 1 h at 37° C. Subsequently, the enzyme was blocked with 1.5 mM 2,3-dehydroNeu5Ac and the cells were washed twice with PBS. Batches of 1-2×10^6 cells were transferred to sample vials and incubated on ice for 15 min with serial concentrations (10-fold dilutions) of the substance to be measured (inhibitor) and then for 20 min with 2 μmolar substance 35. The reaction volume was 50 μl. After washing with PBS, the sample was incubated for 15 min with Streptavidin-PE in the dark, then washed and the amount of substance 35 bound via Streptavadin-PE was measured by FACS. For the determination of 0% displacement of substance 35, cells without inhibitor were measured. For the determination of 100% displacement, cells were measured without substance 35 and without inhibitor. 4 substances and one reference substance were measured per assay. The IC50 values determined in each assay were subsequently converted into rIP values. For this purpose, substance 46 served as reference. […]
Structure (SMILES),rIP (Literature assay) (CD22 (Siglec-2) [1]),rIP (New assay) (CD22 (Siglec-2) [2])
CO[C@]1(C(=O)[O-])C[C@H](O)[C@@H](NC(C)=O)[C@H]([C@H](O)[C@H](O)CNC(=O)c2ccc(-c3ccccc3)cc2)O1.[Na+] [BPC NeuAc],1,1
COC(=O)CCCCCO[C@@H]1O[C@H](CO)[C@@H](O[C@@H]2O[C@H](CO[C@]3(C(=O)[O-])C[C@H](O)[C@@H](NC(C)=O)[C@H]([C@H](O)[C@H](O)CNC(=O)c4ccc(-c5ccccc5)cc4)O3)[C@H](O)[C@H](O)[C@H]2O)[C@H](O)[C@H]1NC(C)=O.[Na+] [BPC NeuAc- LN],15.9,
